The target in assay [1] is T1, 5-HT1B receptor (Homo sapiens, UniProt P28222). Put plainly: saturation binding studies, 5-HT1B receptor. As to conditions: read-out: Kd of radioligand (used in calculation of Ki values).
Method: Frozen membrane preparations were thawed, homogenized with an Ultra-Turrax and mixed with SPA beads (YSI coated WGA, GE Healthcare/Amersham, Buckinghamshire, UK) in assay buffer containing 50 mM Tris-Base, 4 mM MgCl2, 4 mM CaCl2 (only 5-HT1B), 1 mM EDTA, and adjusted to pH 7.4 with HCl. The beads/membrane solution, final concentration 100 pM receptors for 5-HT1A, 300 pM receptors for 5-HT1B and 0.5 mg SPA beads/well, was pre-incubated in room temperature with stirring for 30-60 min. […] Five (log interval, 10 μM to 1 nM, final concentration) or ten serial dilutions (½-log interval, 0.1 μM to 0.0032 nM, final concentration) of compounds were prepared in DMSO from 10 mM stock solutions. The binding assays were performed in 384-well plates in a final volume of 90 μL/well with the following additions: 9 μL binding buffer; 1 μL compound/DMSO/nonspecific; 20 μL radioligand; and 60 μL beads/membrane mixture. Non-specific binding was defined by using 10 μM WAY100635 for 5-HT1A and 10 μM Methiothepin for 5-HT1B. The assay plates were incubated for 4 hours where after the plates are counted in a Wallac 1450 Microbeta Trilux counter (PerkinElmer LifeScience, US) or similar. Data from the experiments were analyzed using a four parameter logistic equation as follows: Y=Bottom+(Top−Bottom)/1+10^(Log EC50-X)nH.
Assay [2] has as its target T1, 5-HT1B receptor. Put plainly: 5-HT1B receptor competition binding assay (SPA, [3H]-GR125743).
Method: (§1) These assays were be used with some modifications:
(§2) For the binding assay stably transfected chinese hamster ovary (CHO) cell lines expressing 5-HT1A receptors or 5-HT1B receptors were harvested by centrifugation at 300×g for 10 min and resuspended in 10 mM Tris-HCl, 5 mM EDTA at pH 7.4. The cells were pooled, recentrifuged and resuspended before homogenisation using a Dounce homogeniser (“type B”). Cell membranes were centrifuged at 48 000×g for 10 min and then resuspended in harvesting buffer using an Ultra-Turrax T8 (IKA Labortechnik, Germany), aliquots were stored frozen in −70° C.
(§3) Frozen membrane preparations were thawed, homogenized with an Ultra-Turrax and mixed with SPA beads (YSI coated WGA, GE Healthcare/Amersham, Buckinghamshire, UK) in assay buffer containing 50 mM Tris-Base, 4 mM MgCl2, 4 mM CaCl2 (only 5-HT1B), 1 mM EDTA, and adjusted to pH 7.4 with HCl. The beads/membrane solution, final concentration 100 pM receptors for 5-HT1A, 300 pM receptors for 5-HT1B and 0.5 mg SPA beads/well, was pre-incubated in room temperature with stirring for 30-60 min. […] The assay plates were incubated for 4 hours where after the plates are counted in a Wallac 1450 Microbeta Trilux counter (PerkinElmer LifeScience, US) or similar. Data from the experiments were analyzed using a four parameter logistic equation as follows: Y=Bottom+(Top−Bottom)/1+10^(Log EC50-X)nH.
Assay [3] deals with T2, 5-HT1A receptors (Homo sapiens, UniProt P08908).
T2 sequence (P08908 1-422): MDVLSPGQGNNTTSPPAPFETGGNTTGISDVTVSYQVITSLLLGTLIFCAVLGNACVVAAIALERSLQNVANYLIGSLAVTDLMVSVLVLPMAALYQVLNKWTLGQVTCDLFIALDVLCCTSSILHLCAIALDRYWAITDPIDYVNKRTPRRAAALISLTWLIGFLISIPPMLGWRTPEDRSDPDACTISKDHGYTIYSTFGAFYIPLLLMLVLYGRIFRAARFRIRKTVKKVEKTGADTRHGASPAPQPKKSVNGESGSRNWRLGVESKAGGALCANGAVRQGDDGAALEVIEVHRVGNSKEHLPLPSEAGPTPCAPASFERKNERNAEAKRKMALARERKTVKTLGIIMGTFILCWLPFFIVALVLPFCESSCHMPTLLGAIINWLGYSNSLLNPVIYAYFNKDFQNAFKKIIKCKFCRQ
Put plainly: 5-HT1A receptor competition binding assay (SPA, [3H]-8-OH-DPAT).
Method: as §1, §2, §3

The structures appear in SMILES notation.

T1 sequence (P28222 whole entry): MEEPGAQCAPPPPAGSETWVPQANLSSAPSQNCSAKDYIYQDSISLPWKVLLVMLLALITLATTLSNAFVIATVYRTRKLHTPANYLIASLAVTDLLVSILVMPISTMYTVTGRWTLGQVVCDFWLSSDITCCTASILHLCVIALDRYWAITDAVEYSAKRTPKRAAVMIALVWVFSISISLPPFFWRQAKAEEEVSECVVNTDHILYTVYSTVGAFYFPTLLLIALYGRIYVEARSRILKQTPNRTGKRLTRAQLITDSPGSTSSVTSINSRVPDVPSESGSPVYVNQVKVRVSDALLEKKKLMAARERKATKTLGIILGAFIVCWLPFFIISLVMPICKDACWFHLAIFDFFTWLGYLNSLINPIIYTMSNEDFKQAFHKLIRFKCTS

On to `COc1ccc(NC(=O)c2ccc(-c3ccncc3)c(C)c2)cc1N1CCN(C)CC1` [[^3H]-GR125743], for which the dissociation constant Kd in assay [1] is 0.87 nM.

On to `CNC(=O)c1cc2c(N3CCN(CCc4cccc5c4CCC(=O)N5C)CC3)cccc2o1` [compound of formula (I), N-Methyl-4-[4-[2-(1-methyl-2-oxo-3,4-dihydroquinolin-5-yl)ethyl]piperazin-1-yl]benzofuran-2-carboxamide], for which the Ki in assay [2] was determined as 0.65 nM; in assay [3] it was 0.07 nM.

The term Kd denotes the concentration at which binding is half-saturated. Broadly, the Ki is a measure of affinity in units of concentration, obtained from inhibition or displacement. A high value points to a looser hold on the target.

The values are drawn from patent US9012457B2, “2-carboxamide-4-piperazinyl-benzofuran derivative” (AstraZeneca AB, priority 2010, dated 2015).
